Laboratory results from article PMC11321617 (Advanced Science, 2024).
≈ marks a conversion by molar mass, not a printed value. Bridge positions count the residues as written; N and C are the ends. Square brackets hold non-standard residues; d marks the D form. Peptide text beside a SMILES is read from it. * marks the point of attachment. X1 = CC[C@H](C)CCCCC(=O)*; Dab = NCC[C@H](N)C(=O)O

What was measured:
[1] = test system: drug‐resistant Gram‐positive bacterial infections; settings: cited from earlier work
Source text: Conventional screening methods have been unsuccessful in discovering new antibiotics in recent years.^[ [16] ^] Traditional screening sources seem overexploited and tend to produce compounds that are already known. However, uncultured bacteria represent a significant and untapped reservoir of novel natural product frameworks.^[ [17] ^] […] In the context of this ...

[2] = test system: persisters induced from E. coli; test: Bactericidal activity against persisters; assay type: cell-based, Escherichia coli; settings: colistin at 4 × MIC (25 µmol L^−1), 24 h; rifampicin‐induced E. coli persisters; n = 3
Protocol: Previously recognized and widely used procedures for developing persisters. The bacterial cells, with a turbidity of 0.8 at 600 nm, were obtained in the mid‐log phase. The culture was cultured at 37 °C for 30 min after 100 µg mL^−1 rifampicin (Macklin, Shanghai, China) was added. The rifampicin‐treated culture was centrifuged, and the pellet was resuspended in TSB containing ampicillin (final concentration: 300 µg mL^−1; Macklin, Shanghai, China) to remove nonpersister cells. […] Then cultured for 24 h, spotted on TSB agar, and incubated overnight at 37 °C.

[3] = test system: Escherichia coli O157:H7; assay type: cell-based; settings: broth dilution, TSB, 5 × 10^5 CFU mL^−1, 18 h, 37 °C
Protocol: (§1) The MICs of the peptides were determined using the microplate broth dilution method.^[ [32] ^] The bacteria in the mid‐log phase were diluted to 5 × 10^5 colony forming units (CFU) mL^−1 in TSB. 100 µL of serially diluted peptide solution and 100 µL of diluted bacteria were put to a sterile 96‐well plate.

[4] = test system: E. coli O157:H7; test: Time‐kill kinetics; assay type: cell-based, Escherichia coli; settings: 4 × MIC, 1 × 10^5 CFU mL^−1 E. coli O157:H7, 37 °C; n = 3
Protocol: During the logarithmic growth phase, 1 × 10^5 CFU mL^−1 of E. coli O157:H7 was diluted in 1 mL, the peptides were incubated with the bacterial solution for several intervals.^[ [42] ^] The solution was diluted to a suitable ratio and evenly distributed across the TSB agar plates. Before being counted, colonies were cultured for one night at 37 °C.

[5] = test system: Salmonella typhimurium SL1344; test: MIC assay (microplate broth dilution); assay type: cell-based; settings: Salmonella enterica, 18 h
Protocol: as §1

[6] = test system: Listeria monocytogenes EGD; test: microbe, parasite or virus in culture; settings: 18 h
Protocol: as §1

[7] = test system: Listeria monocytogenes ATCC19115; test: microbe, parasite or virus in culture; settings: ATCC19115, 18 h
Protocol: as §1

[8] = test system: Listeria monocytogenes 10403S; test: microbe, parasite or virus in culture; settings: 18 h
Protocol: as §1

[9] = test system: Bacillus subtilis BL‐4; test: microbe, parasite or virus in culture; settings: 18 h
Protocol: as §1

[10] = test system: Enterococcus faecalis ATCC51299; test: microbe, parasite or virus in culture; assay type: cell-based; settings: ATCC51299, 18 h
Protocol: as §1

[11] = test system: Pseudomonas aeruginosa ATCC 27853; test: microbe, parasite or virus in culture; assay type: cell-based; settings: ATCC27853, broth dilution, TSB, 5 × 10^5 CFU mL^−1, 18 h, 37 °C
Protocol: as §1

[12] = test system: Staphylococcus aureus ATCC29213; test: microbe, parasite or virus in culture; assay type: cell-based; settings: broth dilution, TSB, 5 × 10^5 CFU mL^−1, 18 h, 37 °C
Protocol: as §1

[13] = test system: Enterococcus faecalis 4P‐SA; test: microbe, parasite or virus in culture; assay type: cell-based; settings: broth dilution, TSB, 5 × 10^5 CFU mL^−1, 18 h, 37 °C
Protocol: as §1

[14] = test system: Klebsiella pneumoniae K7; test: microbe, parasite or virus in culture; assay type: cell-based; settings: broth dilution, TSB, 5 × 10^5 CFU mL^−1, 18 h, 37 °C
Protocol: as §1

[15] = test system: Staphylococcus aureus ATCC25923; test: microbe, parasite or virus in culture; assay type: cell-based; settings: broth dilution, TSB, 5 × 10^5 CFU mL^−1, 18 h, 37 °C
Protocol: as §1

[16] = test system: Methicillin‐Resistant Staphylococcus aureus USA300; test: microbe, parasite or virus in culture; assay type: cell-based; settings: broth dilution, TSB, 5 × 10^5 CFU mL^−1, 18 h, 37 °C, MRSA USA300
Protocol: as §1

[17] = test system: Salmonella pullorum ATCC19945; test: microbe, parasite or virus in culture; assay type: cell-based; settings: Salmonella enterica, broth dilution, TSB, 5 × 10^5 CFU mL^−1, 18 h, 37 °C
Protocol: as §1

[18] = test system: Staphylococcus aureus ATCC25904; test: microbe, parasite or virus in culture; assay type: cell-based; settings: broth dilution, TSB, 5 × 10^5 CFU mL^−1, 18 h, 37 °C
Protocol: as §1

[19] = test system: Staphylococcus epidermidis YYF‐771; test: microbe, parasite or virus in culture; assay type: cell-based; settings: broth dilution, TSB, 5 × 10^5 CFU mL^−1, 18 h, 37 °C
Protocol: as §1

[20] = test system: diabetic wound infections; settings: cecropin ref 27b, SCIBIOIII ref 28, QHREDGS ref 29, LL‐37 ref 30; cited from earlier work
Source text: A significant concern in diabetic wound infections is the complexity of mixed bacterial infections, contributing to prolonged wound healing times, extended periods of inflammation, and a heightened risk of ulcer recurrence.^[ [26] ^] Naturally, an ointment that eliminates these microorganisms holds enormous promise for treating diabetes patients who have recurring infections and preventing the development of antibiotic resistance and transmission. According to earlier research, this CaAGE hydrogel basis was ideal for the AMPs.^[ [27] ^] in terms of the stability, release profile, and antibacte ...

clovibactin
efficacy [1]: effectively controlling drug‐resistant Gram‐positive bacterial infections

CC[C@H](C)CCCCC(=O)N[C@@H](CCN)C(=O)N[C@H](C(=O)N[C@@H](CCN)C(=O)N[C@H]1CCNC(=O)[C@H]([C@@H](C)O)NC(=O)[C@H](CCN)NC(=O)[C@H](CCN)NC(=O)[C@H](CC(C)C)NC(=O)[C@@H](CC(C)C)NC(=O)[C@H](CCN)NC1=O)[C@@H](C)O [colistin, Colistin] (X1-[Dab]T[Dab][Dab][Dab][dL]L[Dab][Dab]T; lactam 4-C (inferred); N-terminus assumed)
effect on persisters [2]: had little effect on the survival
MIC [3]: 3.13 µM (≈ 3.66 µg/mL)
time to eradicate all E. coli cells [4]: 2 h

CC1(C)S[C@@H]2[C@H](NC(=O)[C@H](N)c3ccccc3)C(=O)N2[C@H]1C(=O)O [ampicillin, Ampicillin]
MIC [5]: 12.5 µM (≈ 4.37 µg/mL)
MIC [6]: 4.5 µM (≈ 1.57 µg/mL)
MIC [7]: 6.25 µM (≈ 2.18 µg/mL)
MIC [8]: 25 µM (≈ 8.74 µg/mL)
MIC [9]: 1.57 µM (≈ 0.549 µg/mL)
MIC [10]: 12.5 µM (≈ 4.37 µg/mL)
MIC [11]: > 71.6 µM
MIC [12]: 1.57 µM (≈ 0.549 µg/mL)
MIC [13]: > 71.6 µM
MIC [14]: > 71.6 µM
MIC [15]: 1.57 µM (≈ 0.549 µg/mL)
MIC [16]: 71.6 µM (≈ 25 µg/mL)
MIC [17]: 35.8 µM (≈ 12.5 µg/mL)
MIC [18]: > 71.6 µM
MIC [19]: 1.57 µM (≈ 0.549 µg/mL)

LL‐37
bacterial count reduction / wound healing in diabetic wound infections [20]: none of these peptides demonstrated the capacity to significantly reduce bacterial counts by ≈3‐log or expedite wound healing within a 10‐day timeframe

QHREDGS [AMP researched for diabetic wound infections]
bacterial count reduction / wound healing in diabetic wound infections [20]: none of these peptides demonstrated the capacity to significantly reduce bacterial counts by ≈3‐log or expedite wound healing within a 10‐day timeframe

cecropin
bacterial count reduction / wound healing in diabetic wound infections [20]: none of these peptides demonstrated the capacity to significantly reduce bacterial counts by ≈3‐log or expedite wound healing within a 10‐day timeframe
